Reference: patent US7683091B2, “Substituted indoles and methods of their use” (Wyeth, priority 2005, dated 2010)

The compounds below were run against T1, recombinant human plasminogen activator inhibitor-1 (PAI-1) (Homo sapiens, UniProt P05121) (assay: Primary Screen for PAI-1 Inhibition (chromogenic tPA activity assay)). Conditions: 140 nM PAI-1, 70 nM tPA, pH 6.6.
T1 construct: purchased Molecular Innovations, Royal Oak, Mich
Format: biochemical
Experimental: Primary Screen for PAI-1 Inhibition
The ability of the compounds of this invention to inhibit Plasminogen Activator Inhibitor-1 was established by the following experimental procedure:
Test compounds were dissolved in DMSO at a final concentration of 10 mM, then diluted […] in physiologic buffer. The inhibitory assay was initiated by the addition of the test compound (1-100 μM final concentration, maximum DMSO concentration of 0.2%) in a pH 6.6 buffer containing 140 nM recombinant human plasminogen activator inhibitor-1 (PAI-1; Molecular Innovations, Royal Oak, Mich.). Following a 1 hour incubation at room temperature, 70 nM of recombinant human tissue plasminogen activator (tPA) was added, and the combination of the test compound, PAI-1 and tPA was incubated for an additional 30 minutes. Following the second incubation, Spectrozyme-tPA (American Diagnostica, Greenwich, Conn.), a chromogenic substrate for tPA, was added and absorbance read at 405 nm at 0 and 60 minutes. Relative PAI-1 inhibition is equal to the residual tPA activity in the presence of the test compound and PAI-1. Control treatments include the complete inhibition of tPA by PAI-1 at the molar ratio employed (2:1), and the absence of any effect of the test compound on tPA alone.

T1 sequence (P05121 24-402): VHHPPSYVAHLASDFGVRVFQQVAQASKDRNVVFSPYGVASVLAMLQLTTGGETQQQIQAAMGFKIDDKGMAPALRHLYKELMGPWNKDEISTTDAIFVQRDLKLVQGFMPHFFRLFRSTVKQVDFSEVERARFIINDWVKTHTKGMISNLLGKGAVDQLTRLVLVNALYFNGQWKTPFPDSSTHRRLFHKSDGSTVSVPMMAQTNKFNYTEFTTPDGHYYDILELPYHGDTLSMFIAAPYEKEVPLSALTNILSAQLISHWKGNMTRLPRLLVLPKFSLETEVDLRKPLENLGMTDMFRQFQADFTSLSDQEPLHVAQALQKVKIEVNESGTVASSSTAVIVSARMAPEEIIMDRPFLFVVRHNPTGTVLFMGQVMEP

SMILES | inhibition at 25 µM [%]
CC(C)(C)c1ccc(S(=O)(=O)Nc2ccc3c(ccn3CC(=O)N[C@@H](Cc3ccccc3)C(=O)O)c2)cc1 [Example 22, N-[(5-{[(4-tert-Butylphenyl)sulfonyl]amino}-1H-indol-1-yl)acetyl]-L-phenylalanine] | 6 to 78
O=C(O)Cn1ccc2cc(NS(=O)(=O)c3ccc(-c4ccccc4)cc3)ccc21 [Example 20, {5-[(1,1′-Biphenyl-4-ylsulfonyl)amino]-1H-indol-1-yl}acetic acid] | 6 to 78
O=C(O)CCNC(=O)c1ccc(Cn2ccc3cc(NS(=O)(=O)c4ccc(OC(F)(F)F)cc4)ccc32)cc1 [Example 14, N-(4-{[5-({[4-(Trifluoromethoxy)phenyl]sulfonyl}amino)-1H-indol-1-yl]methyl}benzoyl)-β-alanine] | 6 to 78
CC(C)(C)c1ccc(Cn2ccc3cc(NC(=O)N[C@@H](Cc4ccccc4)C(=O)O)ccc32)cc1 [Example 5, N-({[1-(4-tert-Butylbenzyl)-1H-indol-5-yl]amino}carbonyl)-L-phenylalanine] | 6 to 78
O=C(O)C(Cc1ccccc1)n1ccc2cc(NS(=O)(=O)c3ccc(OC(F)(F)F)cc3)ccc21 (stereo not drawn) [Example 9, 3-Phenyl-2-[5-({[4-(trifluoromethoxy)phenyl]sulfonyl}amino)-1H-indol-1-yl]propanoic acid] | 6 to 78
CC(C)(C)c1ccc(S(=O)(=O)Nc2ccc3c(ccn3Cc3ccc(OCC(=O)O)cc3)c2)cc1 [Example 8, {4-[(5-{[(4-tert-Butylphenyl)sulfonyl]amino}-1H-indol-1-yl)methyl]phenoxy}acetic acid] | 6 to 78
CC(C)(C)c1ccc(Cn2ccc3cc(NC(=O)Nc4cccc(C(=O)O)c4)ccc32)cc1 [Example 6, 3-[({[1-(4-tert-Butylbenzyl)-1H-indol-5-yl]amino}carbonyl)amino]benzoic acid] | 6 to 78
O=C(O)C1CCN(C(=O)c2ccc(Cn3ccc4cc(NS(=O)(=O)c5ccc(Cl)c(Cl)c5)ccc43)cc2)CC1 [Example 17, 1-{4-[(5-{[(3,4-Dichlorophenyl)sulfonyl]amino}-1H-indol-1 yl)methyl]benzoyl}piperidine-4-carboxylic acid] | 6 to 78
CC(C)(C)c1ccc(Cn2ccc3cc(NS(=O)(=O)c4cccc(C(=O)O)c4)ccc32)cc1 [Example 1, 3-({[1-(4-tert-butylbenzyl)-1H-indol-5-yl]amino}sulfonyl)benzoic acid] | 6 to 78
CC(C)(C)c1ccc(S(=O)(=O)Nc2ccc3c(ccn3Cc3ccc(C(=O)NCCC(=O)O)cc3)c2)cc1 [Example 16, N-{4-[(5-{[(4-tert-Butylphenyl)sulfonyl]amino}-1H-indol-1-yl)methyl]benzoyl}-β-alanine] | 6 to 78
CC(C)C[C@H](NC(=O)Cn1ccc2cc(NS(=O)(=O)c3ccc(C(C)(C)C)cc3)ccc21)C(=O)O [Example 24, N-[(5-{[(4-tert-butylphenyl)sulfonyl]amino}-1H-indol-1-yl)acetyl]-L-leucine] | 6 to 78
CC(C)(C)c1ccc(Cn2ccc3cc(N(Cc4ccc(C(=O)O)cc4)S(=O)(=O)c4ccccc4)ccc32)cc1 [Example 3, 4-{[[1-(4-tert-Butylbenzyl)-1H-indol-5-yl](phenylsulfonyl)amino]methyl}benzoic acid] | 6 to 78
CC(C)(C)c1ccc(S(=O)(=O)Nc2ccc3c(ccn3Cc3ccc(C(=O)N4CCC(C(=O)O)CC4)cc3)c2)cc1 [Example 19, 1-{4-[(5-{[(4-tert-Butylphenyl)sulfonyl]amino}-1H-indol-1-yl)methyl]benzoyl}piperidine-4-carboxylic acid] | 6 to 78
CC(C)(C)c1ccc(Cn2ccc3cc(NS(=O)(=O)c4ccc(C(=O)O)cc4)ccc32)cc1 [Example 4, 4-({[1-(4-tert-butylbenzyl)-1H-indol-5-yl]amino}sulfonyl)benzoic acid] | 6 to 78
COC(=O)CN(c1ccc2c(ccn2Cc2ccc(C(C)(C)C)cc2)c1)S(=O)(=O)c1ccccc1 [Example 2, {Benzenesulfonyl-[1-(4-tert-butyl-benzyl)-1H-indol-5-yl]-amino}-acetic acid methyl ester] | 6 to 78

Results, then the compound that gave them:

inhibition at 25 µM [%] | SMILES
6 to 78 | O=C(N[C@@H](Cc1ccccc1)C(=O)O)c1ccc(Cn2ccc3cc(NS(=O)(=O)c4ccc(-c5ccccc5)cc4)ccc32)cc1 [Example 12, N-[4-({5-[(1,1′-Biphenyl-4-ylsulfonyl)amino]-1H-indol-1-yl}methyl)benzoyl]-L-phenylalanine]
6 to 78 | O=C(O)CCNC(=O)c1ccc(Cn2ccc3cc(NS(=O)(=O)c4ccc(-c5ccccc5)cc4)ccc32)cc1 [Example 15, N-[4-({5-[(1,1′-Biphenyl-4-ylsulfonyl)amino]-1H-indol-1-yl}methyl)benzoyl]-β-alanine]
6 to 78 | O=C(N[C@@H](Cc1ccccc1)C(=O)O)c1ccc(Cn2ccc3cc(NS(=O)(=O)c4ccc(OC(F)(F)F)cc4)ccc32)cc1 [Example 11, N-(4-{[5-({[4-(Trifluoromethoxy)phenyl]sulfonyl}amino)-1H-indol-1-yl]methyl}benzoyl)-L-phenylalanine]
6 to 78 | O=C(N[C@@H](Cc1ccccc1)C(=O)O)c1ccc(Cn2ccc3cc(NS(=O)(=O)c4ccccc4)ccc32)cc1 [Example 10, N-[4-({5-[(Phenylsulfonyl)amino]-1H-indol-1-yl}methyl)benzoyl]-L-phenylalanine]
6 to 78 | O=C(Cn1ccc2cc(NS(=O)(=O)c3ccc(-c4ccccc4)cc3)ccc21)N[C@@H](Cc1ccccc1)C(=O)O [Example 21, N-({5-[(1,1′-Biphenyl-4-ylsulfonyl)amino]-1H-indol-1-yl}acetyl)-L-phenylalanine]
6 to 78 | CC(C)(C)c1ccc(S(=O)(=O)Nc2ccc3c(ccn3Cc3ccc(C(=O)N[C@@H](Cc4ccccc4)C(=O)O)cc3)c2)cc1 [Example 13, N-{4-[(5-{[(4-tert-Butylphenyl)sulfonyl]amino}-1H-indol-1-yl)methyl]benzoyl}-L-phenylalanine]
6 to 78 | O=C(O)C1CCN(C(=O)c2ccc(Cn3ccc4cc(NS(=O)(=O)c5ccc(-c6ccccc6)cc5)ccc43)cc2)CC1 [Example 18, 1-[4-({5-[(1,1′-Biphenyl-4-ylsulfonyl)amino]-1H-indol-1-yl}methyl)benzoyl]piperidine-4-carboxylic acid]
6 to 78 | CC(C)C[C@H](NC(=O)Cn1ccc2cc(NS(=O)(=O)c3ccc(-c4ccccc4)cc3)ccc21)C(=O)O [Example 23, N-({5-[(1,1′-biphenyl-4-ylsulfonyl)amino]-1H-indol-1-yl}acetyl)-L-leucine]
6 to 78 | O=C(O)COc1ccc(Cn2ccc3cc(NS(=O)(=O)c4ccc(-c5ccccc5)cc4)ccc32)cc1 [Example 7, [4-({5-[(1,1′-Biphenyl-4-ylsulfonyl)amino]-1H-indol-1-yl}methyl)phenoxy]acetic acid]
